In ChEMBL document CHEMBL2346657, “Synthesis of novel 2-amino-4-(5'-substituted 2'-phenyl-1H-indol-3'-yl)-6-aryl-4H-pyran-3-carbonitrile derivatives as antimicrobial and antioxidant agents” (2013):
Activity calls are given as the source filed them. Unless noted, the rule behind the calls is not given here.

Tests used:
Type in all cases: functional
[1] = Antioxidant activity assessed as metal chelating activity by measuring inhibition of ferrozine-Fe2+ complex formation at 25 to 100 ug/ml
[2] = Antioxidant activity assessed as ferric ion reducing activity at 100 ug/ml by FRAP assay
Aspergillus flavus [3] = test: Antimicrobial activity against Aspergillus flavus MTCC 1973 at 500 ug/ml after 72 hrs by cup plate method; details: MTCC 1973, 72 h, read-out: IZ
Aspergillus flavus [4] = test: Antimicrobial activity against Aspergillus flavus MTCC 1973 at 750 ug/ml after 72 hrs by cup plate method; details: MTCC 1973, 72 h, read-out: IZ
Aspergillus flavus [5] = test: Antimicrobial activity against Aspergillus flavus MTCC 1973 at 1000 ug/ml after 72 hrs by cup plate method; details: MTCC 1973, 72 h, read-out: IZ
Aspergillus terreus [6] = test: Antimicrobial activity against Aspergillus terreus MTCC 1782 at 500 ug/ml after 72 hrs by cup plate method; details: MTCC 1782, 72 h, read-out: IZ
Aspergillus terreus [7] = test: Antimicrobial activity against Aspergillus terreus MTCC 1782 at 750 ug/ml after 72 hrs by cup plate method; details: MTCC 1782, 72 h, read-out: IZ
Aspergillus terreus [8] = test: Antimicrobial activity against Aspergillus terreus MTCC 1782 at 1000 ug/ml after 72 hrs by cup plate method; details: MTCC 1782, 72 h, read-out: IZ
Aspergillus oryzae [9] = test: Antimicrobial activity against Aspergillus oryzae MTCC 3567 at 500 ug/ml after 72 hrs by cup plate method; details: MTCC 3567, 72 h, read-out: IZ
Aspergillus oryzae [10] = test: Antimicrobial activity against Aspergillus oryzae MTCC 3567 at 750 ug/ml after 72 hrs by cup plate method; details: MTCC 3567, 72 h, read-out: IZ
Aspergillus oryzae [11] = test: Antimicrobial activity against Aspergillus oryzae MTCC 3567 at 1000 ug/ml after 72 hrs by cup plate method; details: MTCC 3567, 72 h, read-out: IZ
Aspergillus niger [12] = test: Antimicrobial activity against Aspergillus niger MTCC 281 at 500 ug/ml after 72 hrs by cup plate method; details: MTCC 281, 72 h, read-out: IZ
Aspergillus niger [13] = test: Antimicrobial activity against Aspergillus niger MTCC 281 at 750 ug/ml after 72 hrs by cup plate method; details: MTCC 281, 72 h, read-out: IZ
Aspergillus niger [14] = test: Antimicrobial activity against Aspergillus niger MTCC 281 at 1000 ug/ml after 72 hrs by cup plate method; details: MTCC 281, 72 h, read-out: IZ
Pseudomonas aeruginosa [15] = test: Antimicrobial activity against Pseudomonas aeruginosa MTCC 1688 at 500 ug/ml after 24 hrs by cup plate method; details: MTCC 1688, 24 h, read-out: IZ
Pseudomonas aeruginosa [16] = test: Antimicrobial activity against Pseudomonas aeruginosa MTCC 1688 at 750 ug/ml after 24 hrs by cup plate method; details: MTCC 1688, 24 h, read-out: IZ
Pseudomonas aeruginosa [17] = test: Antimicrobial activity against Pseudomonas aeruginosa MTCC 1688 at 1000 ug/ml after 24 hrs by cup plate method; details: MTCC 1688, 24 h, read-out: IZ
Klebsiella pneumoniae [18] = test: Antimicrobial activity against Klebsiella pneumoniae NCTC 13368 at 500 ug/ml after 24 hrs by cup plate method; details: NCTC 13368, 24 h, read-out: IZ
Klebsiella pneumoniae [19] = test: Antimicrobial activity against Klebsiella pneumoniae NCTC 13368 at 750 ug/ml after 24 hrs by cup plate method; details: NCTC 13368, 24 h, read-out: IZ
Klebsiella pneumoniae [20] = test: Antimicrobial activity against Klebsiella pneumoniae NCTC 13368 at 1000 ug/ml after 24 hrs by cup plate method; details: NCTC 13368, 24 h, read-out: IZ
Staphylococcus aureus [21] = test: Antimicrobial activity against Staphylococcus aureus ATCC 29513 at 500 ug/ml after 24 hrs by cup plate method; details: ATCC 29513, 24 h, read-out: IZ
Staphylococcus aureus [22] = test: Antimicrobial activity against Staphylococcus aureus ATCC 29513 at 750 ug/ml after 24 hrs by cup plate method; details: ATCC 29513, 24 h, read-out: IZ
Staphylococcus aureus [23] = test: Antimicrobial activity against Staphylococcus aureus ATCC 29513 at 1000 ug/ml after 24 hrs by cup plate method; details: ATCC 29513, 24 h, read-out: IZ
Escherichia coli [24] = test: Antimicrobial activity against Escherichia coli MTCC 723 at 500 ug/ml after 24 hrs by cup plate method; details: MTCC 723, 24 h, read-out: IZ
Escherichia coli [25] = test: Antimicrobial activity against Escherichia coli MTCC 723 at 750 ug/ml after 24 hrs by cup plate method; details: MTCC 723, 24 h, read-out: IZ
Escherichia coli [26] = test: Antimicrobial activity against Escherichia coli MTCC 723 at 1000 ug/ml after 24 hrs by cup plate method; details: MTCC 723, 24 h, read-out: IZ
[27] = system: Radical scavenging activity; test: Antioxidant activity assessed as DPPH radical scavenging activity at 100 ug/ml

Compound | Activity [1] | zone of inhibition at 500 µg/mL (Aspergillus flavus [3]) [mm] | zone of inhibition at 750 µg/mL (Aspergillus flavus [4]) [mm] | zone of inhibition at 1000 µg/mL (Aspergillus flavus [5]) [mm] | zone of inhibition at 500 µg/mL (Aspergillus terreus [6]) [mm] | zone of inhibition at 750 µg/mL (Aspergillus terreus [7]) [mm] | zone of inhibition at 1000 µg/mL (Aspergillus terreus [8]) [mm] | zone of inhibition at 500 µg/mL (Aspergillus oryzae [9]) [mm] | zone of inhibition at 750 µg/mL (Aspergillus oryzae [10]) [mm] | zone of inhibition at 1000 µg/mL (Aspergillus oryzae [11]) [mm] | zone of inhibition at 500 µg/mL (Aspergillus niger [12]) [mm] | zone of inhibition at 750 µg/mL (Aspergillus niger [13]) [mm] | zone of inhibition at 500 µg/mL (Pseudomonas aeruginosa [15]) [mm] | zone of inhibition at 750 µg/mL (Pseudomonas aeruginosa [16]) [mm] | zone of inhibition at 1000 µg/mL (Pseudomonas aeruginosa [17]) [mm] | zone of inhibition at 500 µg/mL (Klebsiella pneumoniae [18]) [mm] | zone of inhibition at 750 µg/mL (Klebsiella pneumoniae [19]) [mm] | zone of inhibition at 1000 µg/mL (Klebsiella pneumoniae [20]) [mm] | zone of inhibition at 500 µg/mL (Staphylococcus aureus [21]) [mm] | zone of inhibition at 750 µg/mL (Staphylococcus aureus [22]) [mm] | also measured
Cc1ccc(C2=CC(c3c(-c4ccccc4)[nH]c4ccccc34)C(C#N)=C(N)O2)cc1 (stereo not drawn) | Active | 8 | 9 | 10 | 8 | 6 | 5 | 5 | 9 | 8 | 8 | 8 | 9 | 8 | 6 | 8 | 6 | 5 | 0 | 0 | Activity [2]: Active; zone of inhibition at 1000 µg/mL (Aspergillus niger [14]): 8 mm; zone of inhibition at 1000 µg/mL (Staphylococcus aureus [23]): 0 mm; zone of inhibition at 500 µg/mL (Escherichia coli [24]): 10 mm; zone of inhibition at 750 µg/mL (Escherichia coli [25]): 10 mm; zone of inhibition at 1000 µg/mL (Escherichia coli [26]): 10 mm
Cc1ccc2[nH]c(-c3ccccc3)c(C3C=C(c4ccc(Cl)cc4)Oc4[nH]nc(N)c43)c2c1 (stereo not drawn) | Active | 5 | 5 | 2 | 10 | 10 | 10 | 8 | 7 | 7 | 5 | 3 | 6 | 6 | 5 | 12 | 12 | 12 | 2 | 0 | Activity [27]: Active; zone of inhibition at 1000 µg/mL (Aspergillus niger [14]): 2 mm; zone of inhibition at 1000 µg/mL (Staphylococcus aureus [23]): 0 mm; zone of inhibition at 500 µg/mL (Escherichia coli [24]): 9 mm; zone of inhibition at 750 µg/mL (Escherichia coli [25]): 8 mm; zone of inhibition at 1000 µg/mL (Escherichia coli [26]): 8 mm
Cc1ccc(C2=CC(c3c(-c4ccccc4)[nH]c4ccc(C)cc34)c3c(N)n[nH]c3O2)cc1 (stereo not drawn) | Active | 4 | 4 | 3 | 0 | 0 | 0 | 10 | 9 | 9 | 9 | 9 | 8 | 4 | 4 | 11 | 10 | 10 | 7 | 5 | Activity [27]: Active; zone of inhibition at 1000 µg/mL (Staphylococcus aureus [23]): 5 mm; zone of inhibition at 500 µg/mL (Escherichia coli [24]): 8 mm; zone of inhibition at 750 µg/mL (Escherichia coli [25]): 9 mm; zone of inhibition at 1000 µg/mL (Escherichia coli [26]): 10 mm
Cc1ccc(C2=CC(c3c(-c4ccccc4)[nH]c4ccccc34)c3c(N)nc(=O)[nH]c3O2)cc1 (stereo not drawn) | Active | 3 | 3 | 3 | 3 | 3 | 3 | 10 | 10 | 10 | 5 | 3 | 5 | 3 | 3 | 6 | 4 | 3 | 5 | 3 | Activity [27]: Active; zone of inhibition at 1000 µg/mL (Aspergillus niger [14]): 2 mm; zone of inhibition at 1000 µg/mL (Staphylococcus aureus [23]): 5 mm; zone of inhibition at 500 µg/mL (Escherichia coli [24]): 7 mm; zone of inhibition at 750 µg/mL (Escherichia coli [25]): 7 mm; zone of inhibition at 1000 µg/mL (Escherichia coli [26]): 8 mm
